Measurements published in paper PMC7252619 (PLoS ONE, 2020).
Read-outs that look alike come from different tables or passages of the source.

Columns and labels:
VEGFR2 = VEGFR2 (Homo sapiens, UniProt P35968); assay: Kinase activity test (ReactionBiology), % enzyme activity relative to DMSO; format: biochemical; set-up: purchased ReactionBiology; settings: VEGFR2;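 also: VEGFR2 was one member of a ten-kinase screening panel testing marketed FDA-approved drugs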
[1] = WST-1 cytotoxicity assay on Jurkat cells (T-cell line); format: cell-based, human; settings: human, Jurkat cells (T-cell line), mean of 4 independent measures, read-out: Cytotoxicity, WST-1 Jurkat IC 50 (µM) Mean
[2] = system: human PBMCs (responder cells) with RPMI1788 stimulator cells; assay: Mixed Lymphocyte Reaction (MLR, T cell assay), 3H-thymidine incorporation; format: cell-based; settings: for IC50: Homo sapiens, RPMI-1788, mean of 4 independent measures, read-out: T-cell efficacy, MLR IC 50 (µM) Mean; for Selectivity Index (SI) MLR/B-cell: ratio of IC50 values
DAPK1 = target: T1, DAPK1 (Homo sapiens, UniProt P53355); assay: Kinase activity test (ReactionBiology), % enzyme activity relative to DMSO; format: biochemical; settings: DAPK1
T1 construct: purchased ReactionBiology
T1 sequence (P53355 whole entry): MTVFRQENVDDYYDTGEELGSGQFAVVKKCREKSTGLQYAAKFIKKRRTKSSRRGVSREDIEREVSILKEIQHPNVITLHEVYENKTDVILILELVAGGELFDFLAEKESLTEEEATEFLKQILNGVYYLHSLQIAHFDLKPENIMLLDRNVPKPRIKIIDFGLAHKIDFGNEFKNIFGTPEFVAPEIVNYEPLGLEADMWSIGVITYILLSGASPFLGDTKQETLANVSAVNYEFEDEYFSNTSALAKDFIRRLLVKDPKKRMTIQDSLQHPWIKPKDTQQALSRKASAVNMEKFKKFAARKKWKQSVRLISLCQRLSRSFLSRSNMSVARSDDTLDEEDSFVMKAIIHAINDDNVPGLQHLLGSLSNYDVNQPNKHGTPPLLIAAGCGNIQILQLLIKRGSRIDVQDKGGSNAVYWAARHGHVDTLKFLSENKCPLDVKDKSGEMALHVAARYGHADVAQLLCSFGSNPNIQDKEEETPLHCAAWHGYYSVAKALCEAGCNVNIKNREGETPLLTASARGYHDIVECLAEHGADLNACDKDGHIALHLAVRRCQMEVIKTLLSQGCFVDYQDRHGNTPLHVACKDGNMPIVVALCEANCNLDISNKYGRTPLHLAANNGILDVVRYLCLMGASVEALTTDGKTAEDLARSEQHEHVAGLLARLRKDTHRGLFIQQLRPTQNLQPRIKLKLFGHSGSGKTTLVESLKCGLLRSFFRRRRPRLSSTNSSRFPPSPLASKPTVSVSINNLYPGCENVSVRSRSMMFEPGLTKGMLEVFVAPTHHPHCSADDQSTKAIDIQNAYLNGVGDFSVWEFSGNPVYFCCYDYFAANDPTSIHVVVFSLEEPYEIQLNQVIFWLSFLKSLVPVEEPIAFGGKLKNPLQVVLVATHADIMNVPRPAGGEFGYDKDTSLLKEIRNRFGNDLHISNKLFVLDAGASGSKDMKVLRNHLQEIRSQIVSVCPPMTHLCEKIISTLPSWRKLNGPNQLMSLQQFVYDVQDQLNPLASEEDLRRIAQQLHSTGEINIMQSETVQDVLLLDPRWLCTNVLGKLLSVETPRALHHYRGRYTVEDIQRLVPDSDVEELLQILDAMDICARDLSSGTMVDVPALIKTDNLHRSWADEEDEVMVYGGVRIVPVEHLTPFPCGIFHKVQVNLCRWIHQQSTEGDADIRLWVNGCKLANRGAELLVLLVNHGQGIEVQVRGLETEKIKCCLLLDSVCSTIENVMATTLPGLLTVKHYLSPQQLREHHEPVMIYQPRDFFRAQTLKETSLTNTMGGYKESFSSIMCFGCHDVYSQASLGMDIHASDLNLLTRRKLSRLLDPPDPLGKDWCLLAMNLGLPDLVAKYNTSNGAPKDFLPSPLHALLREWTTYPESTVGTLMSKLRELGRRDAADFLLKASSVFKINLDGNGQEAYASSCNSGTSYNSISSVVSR

[3] = WST-1 cytotoxicity assay on RPMI1788 cells (B-cell line); format: cell-based, human; settings: human, RPMI1788 cells (B-cell line), mean of 4 independent measures, read-out: Cytotoxicity, WST-1 RPMI 1788 IC 50 (µM) Mean
Description: (§1) Compounds were prepared as 10 mM stock solutions in dimethylsulfoxide (DMSO)and were tested at 50-10-1-0.1-0.01 and 0.001 μM in the 4 assays.
The human B cell line RPMI1788 (American Type Culture Collection, USA) and the human T cell line Jurkat (European Collection of Cell Cultures, ECACC, England) were maintained in RPMI1640 culture medium (BioWhittaker®, Lonza, Verviers, Belgium) containing 10% foetal calf serum (FCS, HyClone® Thermo Scientific, United Kingdom) and 5 μg/mL gentamicin sulphate (BioWhittaker®, Lonza, Verviers, Belgium) at 37°C and 5% CO2.
WST-1 assays on RPMI-1788 cells and Jurkat cells were performed as follows: 20 μL of test compound dilution were added to each well containing exponential growing cells and the plates were incubated for 48 h at 37°C, 5% CO2. Untreated cells and positive control (1% triton X-100, for the last 15 min) served as reference for maximum and minimum viability. At the end of incubation 100 μL of supernatant were removed and replaced by 10 μL of WST-1 solution (Cell Proliferation Reagent WST-1, Roche Applied Science).

human CD19+ B cells = assay: B-cell assay: IgG production of ODN2006-stimulated primary B cells (AlphaLISA); format: cell-based; settings: Homo sapiens, B-cell
Description: as §1
Blood samples of healthy volunteers were collected at the Red Cross of Mechelen, Belgium.
Highly purified naive peripheral human B cells were separated from fresh human PBMCs on magnetic columns by positive selection using CD19 magnetic beads according to the manufacturer’s instructions (MACS Miltenyi Biotech, Leiden, The Netherlands). […] Freshly isolated human CD19+ B cells were then plated at 25 000 cells per well in a 384-well plate (Perkin Elmer, Zaventem, Belgium) in 55 μL in DMEM medium containing 10% FCS and 5 μg/mL gentamicin sulphate. After 7 days of stimulation with 0.1 μM ODN2006 (InvivoGen, Toulouse, France), supernatant was taken for analysis of IgG using the AlphaLISA human IgG kit according to the manufacturer’s instructions (Perkin Elmer, Zaventem, Belgium).

CK1d = target: T2, CK1d (Homo sapiens, UniProt P48730); assay: Kinase activity test (ReactionBiology), % enzyme activity relative to DMSO; format: biochemical; settings: CK1d
T2 construct: purchased ReactionBiology
T2 sequence (P48730 whole entry): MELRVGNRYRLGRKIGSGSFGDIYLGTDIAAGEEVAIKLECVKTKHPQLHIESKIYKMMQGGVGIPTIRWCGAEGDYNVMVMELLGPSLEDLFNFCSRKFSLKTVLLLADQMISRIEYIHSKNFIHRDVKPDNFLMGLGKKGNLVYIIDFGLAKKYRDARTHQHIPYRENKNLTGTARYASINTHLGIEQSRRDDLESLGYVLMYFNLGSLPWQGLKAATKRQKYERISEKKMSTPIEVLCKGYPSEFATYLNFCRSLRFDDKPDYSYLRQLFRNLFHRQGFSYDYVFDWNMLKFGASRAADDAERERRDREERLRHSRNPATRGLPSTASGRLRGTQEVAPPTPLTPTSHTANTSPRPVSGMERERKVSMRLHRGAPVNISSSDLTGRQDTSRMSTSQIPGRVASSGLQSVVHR

NEK2 = target: T3, NEK2 (Homo sapiens, UniProt P51955); assay: as above; format: biochemical;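 also: FDA-approved drugs chosen by structure-based repositioning, each screened at 10 or 1 µM for kinase activity, expressed as percent of DMSO controls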
T3 construct: purchased ReactionBiology
T3 sequence (P51955 1-445): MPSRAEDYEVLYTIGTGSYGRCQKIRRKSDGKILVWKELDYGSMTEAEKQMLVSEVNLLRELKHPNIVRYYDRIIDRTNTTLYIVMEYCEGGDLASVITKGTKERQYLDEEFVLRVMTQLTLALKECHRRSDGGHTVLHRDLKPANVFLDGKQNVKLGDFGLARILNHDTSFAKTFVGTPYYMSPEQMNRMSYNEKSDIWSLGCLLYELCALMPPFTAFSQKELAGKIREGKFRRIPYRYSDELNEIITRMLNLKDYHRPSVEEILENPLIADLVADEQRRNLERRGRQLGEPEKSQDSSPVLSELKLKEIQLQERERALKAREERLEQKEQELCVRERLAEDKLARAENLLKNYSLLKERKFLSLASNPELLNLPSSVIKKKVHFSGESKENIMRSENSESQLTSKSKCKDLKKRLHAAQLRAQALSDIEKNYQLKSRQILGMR

[4] = 1 uM, Average, read-out: % Enzyme Activity (relative to DMSO controls), Average
[5] = 1 uM, replicate Data 1, read-out: % Enzyme Activity (relative to DMSO controls), Data 1
[6] = 1 uM, replicate Data 2, read-out: % Enzyme Activity (relative to DMSO controls), Data 2
[7] = 10 uM, replicate Data 1, read-out: % Enzyme Activity (relative to DMSO controls), Data 1
[8] = 10 uM, replicate Data 2, read-out: % Enzyme Activity (relative to DMSO controls), Data 2
[9] = compound 1μM, relative to DMSO controls, read-out: % Enzyme activity at 1μM
[10] = 10 uM, Average, read-out: % Enzyme Activity (relative to DMSO controls), Average
[11] = compound 10μM, relative to DMSO controls, read-out: % Enzyme activity at 10μM
[12] = 168 h, IgG production, ODN2006 0.1 μM, 7 days, mean of 4 independent experiments, read-out: B-cell IC50
[13] = NEK2, 1 uM, Average, read-out: % Enzyme Activity (relative to DMSO controls), Average
[14] = NEK2, 1 uM, replicate Data 1, read-out: % Enzyme Activity (relative to DMSO controls), Data 1
[15] = NEK2, 1 uM, replicate Data 2, read-out: % Enzyme Activity (relative to DMSO controls), Data 2
[16] = NEK2, 10 uM, Average, read-out: % Enzyme Activity (relative to DMSO controls), Average
[17] = NEK2, 10 uM, replicate Data 1, read-out: % Enzyme Activity (relative to DMSO controls), Data 1
[18] = NEK2, 10 uM, replicate Data 2, read-out: % Enzyme Activity (relative to DMSO controls), Data 2
[19] = NEK2, compound 1μM, relative to DMSO controls, read-out: % Enzyme activity at 1μM
[20] = NEK2, compound 10μM, relative to DMSO controls, read-out: % Enzyme activity at 10μM
[21] = read-out: % Enzyme Activity (relative to DMSO controls), Average
[22] = read-out: % Enzyme Activity (relative to DMSO controls), Data 1
[23] = read-out: % Enzyme Activity (relative to DMSO controls), Data 2

VEGFR2, sequence (P35968 20-1356): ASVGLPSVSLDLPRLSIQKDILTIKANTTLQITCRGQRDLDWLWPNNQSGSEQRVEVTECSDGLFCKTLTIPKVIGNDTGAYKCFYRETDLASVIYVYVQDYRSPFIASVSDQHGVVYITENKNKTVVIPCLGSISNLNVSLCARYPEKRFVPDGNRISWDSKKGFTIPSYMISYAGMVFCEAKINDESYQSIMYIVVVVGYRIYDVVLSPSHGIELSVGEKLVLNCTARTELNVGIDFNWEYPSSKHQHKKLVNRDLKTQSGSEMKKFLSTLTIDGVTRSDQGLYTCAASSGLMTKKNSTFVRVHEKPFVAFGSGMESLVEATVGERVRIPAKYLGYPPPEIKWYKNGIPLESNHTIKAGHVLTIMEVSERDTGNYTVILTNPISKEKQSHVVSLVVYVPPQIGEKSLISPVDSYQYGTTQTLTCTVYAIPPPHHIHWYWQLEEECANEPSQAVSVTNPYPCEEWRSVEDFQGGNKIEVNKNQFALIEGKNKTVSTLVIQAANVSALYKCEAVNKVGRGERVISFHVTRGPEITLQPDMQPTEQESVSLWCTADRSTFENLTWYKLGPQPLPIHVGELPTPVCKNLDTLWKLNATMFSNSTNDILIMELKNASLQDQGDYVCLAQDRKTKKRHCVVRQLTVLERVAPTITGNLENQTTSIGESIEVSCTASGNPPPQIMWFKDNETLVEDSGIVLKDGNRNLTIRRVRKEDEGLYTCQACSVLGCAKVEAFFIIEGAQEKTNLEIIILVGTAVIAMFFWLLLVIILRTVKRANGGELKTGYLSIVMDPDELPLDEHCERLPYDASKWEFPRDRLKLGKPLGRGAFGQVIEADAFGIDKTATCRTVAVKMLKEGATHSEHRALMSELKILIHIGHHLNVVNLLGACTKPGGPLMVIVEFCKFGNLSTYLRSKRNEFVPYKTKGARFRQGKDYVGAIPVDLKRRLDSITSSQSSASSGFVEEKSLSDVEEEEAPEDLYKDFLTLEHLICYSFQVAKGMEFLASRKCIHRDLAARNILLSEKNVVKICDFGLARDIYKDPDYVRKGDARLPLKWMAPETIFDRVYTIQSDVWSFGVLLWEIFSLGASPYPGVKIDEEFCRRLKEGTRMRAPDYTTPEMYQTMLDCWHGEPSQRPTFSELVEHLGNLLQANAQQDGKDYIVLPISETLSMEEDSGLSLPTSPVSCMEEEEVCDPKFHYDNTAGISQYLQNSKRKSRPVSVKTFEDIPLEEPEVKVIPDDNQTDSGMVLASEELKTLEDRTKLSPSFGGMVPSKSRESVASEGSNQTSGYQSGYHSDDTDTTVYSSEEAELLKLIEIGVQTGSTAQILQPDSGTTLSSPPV

C=CC(=O)N1CCC[C@@H](n2nc(-c3ccc(Oc4ccccc4)cc3)c3c(N)ncnc32)C1 [Ibrutinib, reference compound]
remaining activity at 1 µM (VEGFR2; [4]): 19.5% | remaining activity at 1 µM (VEGFR2; [5]): 19.6% | remaining activity at 1 µM (VEGFR2; [6]): 19.5% | remaining activity at 10 µM (VEGFR2; [7]): 1.46% | remaining activity at 10 µM (VEGFR2; [8]): 1.53% | inhibition of the kinase activity (strong/weak) (VEGFR2; at 10 and 1 μM): strong (We considered a 50% inhibition of the kinase activity as strong) | remaining activity at 1 µM (VEGFR2; [9]): 19.5% | IC50 at 48 h [1]: 14.7 µM | IC50 [2]: 1 µM | remaining activity at 1 µM (DAPK1; [4]): 95.6% | remaining activity at 1 µM (DAPK1; [5]): 97.4% | remaining activity at 1 µM (DAPK1; [6]): 93.8% | remaining activity at 10 µM (DAPK1; [10]): 23.7% | remaining activity at 10 µM (DAPK1; [7]): 24% | remaining activity at 10 µM (DAPK1; [8]): 23.5% | remaining activity at 1 µM (DAPK1; [9]): 95.6% | remaining activity at 10 µM (DAPK1; [11]): 23.7% | IC50 at 48 h [3]: 0.7 µM | IC50 (human CD19+ B cells; [12]): 0.0002 µM | IC50 (human CD19+ B cells; mean of 4 independent measures, read-out: B-cell efficacy, B cell IC 50 (µM) Mean): 0.000181 µM

N[C@@H](Cc1cc(I)c(Oc2cc(I)c(O)c(I)c2)c(I)c1)C(=O)O [Thyroxine, reference compound]
remaining activity at 1 µM (CK1d; [4]): 106% | remaining activity at 1 µM (CK1d; [5]): 106% | remaining activity at 1 µM (CK1d; [6]): 106% | remaining activity at 10 µM (CK1d; [10]): 97.2% | remaining activity at 10 µM (CK1d; [7]): 99.7% | remaining activity at 10 µM (CK1d; [8]): 94.7% | remaining activity at 1 µM (VEGFR2; [4]): 104% | remaining activity at 1 µM (VEGFR2; [5]): 106% | remaining activity at 1 µM (VEGFR2; [6]): 103% | remaining activity at 10 µM (VEGFR2; [10]): 86.6% | remaining activity at 10 µM (VEGFR2; [7]): 89.7% | remaining activity at 10 µM (VEGFR2; [8]): 83.5% | IC50 at 48 h [1]: > 50 µM | remaining activity at 1 µM (NEK2; [13]): 90.2% | remaining activity at 1 µM (NEK2; [14]): 91.2% | remaining activity at 1 µM (NEK2; [15]): 89.1% | remaining activity at 10 µM (NEK2; [16]): 48.1% | remaining activity at 10 µM (NEK2; [17]): 47.1% | remaining activity at 10 µM (NEK2; [18]): 49.1% | remaining activity at 1 µM (NEK2; [19]): 90.2% | remaining activity at 10 µM (NEK2; [20]): 48.1% | IC50 [2]: > 50 µM | IC50 at 48 h [3]: > 50 µM | IC50 (human CD19+ B cells; [12]): 34.1 µM

Oc1c(Cl)cc(Cl)c(Cl)c1Cc1c(O)c(Cl)cc(Cl)c1Cl [Hexachlorophene, reference compound]
IC50 at 48 h [1]: 5.88 µM | remaining activity at 1 µM (NEK2; [21]): 84.9% | remaining activity at 10 µM (NEK2; [21]): 0.02% | remaining activity at 1 µM (NEK2; [22]): 85.4% | remaining activity at 10 µM (NEK2; [22]): -0.21% | remaining activity at 1 µM (NEK2; [23]): 84.5% | remaining activity at 10 µM (NEK2; [23]): 0.25% | remaining activity at 1 µM (NEK2; read-out: % Enzyme activity at 1μM): 84.9% | remaining activity at 10 µM (NEK2; read-out: % Enzyme activity at 10μM): 0.02% | IC50 [2]: 1.42 µM | IC50 at 48 h [3]: 4.2 µM | IC50 (human CD19+ B cells; [12]): 5.34 µM

CCN(CC)Cc1cc(Nc2ccnc3cc(Cl)ccc23)ccc1O [Amodiaquine, reference compound]
remaining activity at 1 µM (CK1d; [4]): 107% | remaining activity at 1 µM (CK1d; [5]): 106% | remaining activity at 1 µM (CK1d; [6]): 108% | remaining activity at 10 µM (CK1d; [10]): 69.1% | remaining activity at 10 µM (CK1d; [7]): 70.5% | remaining activity at 10 µM (CK1d; [8]): 67.6% | remaining activity at 1 µM (CK1d; [9]): 107% | remaining activity at 10 µM (CK1d; [11]): 69.1% | IC50 at 48 h [1]: 26.2 µM | IC50 [2]: 9.78 µM | Selectivity Index (SI) MLR/B-cell [2]: 14.73 | IC50 at 48 h [3]: 28.1 µM | IC50 (human CD19+ B cells; [12]): 0.66 µM

CC/C(=C(/CC)c1ccc(O)cc1)c1ccc(O)cc1 [Diethylstilbestrol, reference compound]
remaining activity at 1 µM (CK1d; [4]): 106% | remaining activity at 1 µM (CK1d; [5]): 107% | remaining activity at 1 µM (CK1d; [6]): 104% | remaining activity at 10 µM (CK1d; [10]): 84.8% | remaining activity at 10 µM (CK1d; [7]): 84.6% | remaining activity at 10 µM (CK1d; [8]): 85.1% | IC50 at 48 h [1]: 6.7 µM | remaining activity at 1 µM (NEK2; [13]): 97.9% | remaining activity at 1 µM (NEK2; [14]): 94.5% | remaining activity at 1 µM (NEK2; [15]): 101% | remaining activity at 10 µM (NEK2; [16]): 50.7% | remaining activity at 10 µM (NEK2; [17]): 44.7% | remaining activity at 10 µM (NEK2; [18]): 56.7% | remaining activity at 1 µM (NEK2; [19]): 97.9% | remaining activity at 10 µM (NEK2; [20]): 50.7% | IC50 at 48 h [3]: 31.4 µM

CN1CCN(CCCN2c3ccccc3Sc3ccc(Cl)cc32)CC1 [Prochlorperazine, reference compound]
IC50 at 48 h [1]: 21.9 µM | remaining activity at 1 µM (NEK2; [13]): 70.1% | remaining activity at 1 µM (NEK2; [14]): 67.7% | remaining activity at 1 µM (NEK2; [15]): 72.5% | remaining activity at 10 µM (NEK2; [16]): 68.7% | remaining activity at 10 µM (NEK2; [17]): 69.6% | remaining activity at 10 µM (NEK2; [18]): 67.8% | remaining activity at 1 µM (NEK2; [19]): 70.1% | remaining activity at 10 µM (NEK2; [20]): 68.7% | IC50 at 48 h [3]: 9.63 µM

Cc1cc(C#N)cc(C)c1Oc1nc(Nc2ccc(C#N)cc2)nc(N)c1Br [Etravirine, reference compound]
remaining activity at 1 µM (VEGFR2; [4]): 108% | remaining activity at 1 µM (VEGFR2; [5]): 108% | remaining activity at 1 µM (VEGFR2; [6]): 108% | remaining activity at 10 µM (VEGFR2; [10]): 41.1% | remaining activity at 10 µM (VEGFR2; [7]): 42.6% | remaining activity at 10 µM (VEGFR2; [8]): 39.5% | remaining activity at 1 µM (VEGFR2; [9]): 108% | remaining activity at 10 µM (VEGFR2; [11]): 41.1% | IC50 at 48 h [1]: 30.4 µM | IC50 [2]: 7.27 µM | Selectivity Index (SI) MLR/B-cell [2]: 1.23 | IC50 at 48 h [3]: 8 µM | IC50 (human CD19+ B cells; [12]): 5.9 µM

Nc1ccc2cc3ccc(N)cc3nc2c1 [Proflavine, reference compound]
IC50 at 48 h [1]: 5 µM | remaining activity at 1 µM (NEK2; [13]): 104% | remaining activity at 1 µM (NEK2; [14]): 104% | remaining activity at 1 µM (NEK2; [15]): 104% | remaining activity at 10 µM (NEK2; [16]): 51.6% | remaining activity at 10 µM (NEK2; [17]): 49% | remaining activity at 10 µM (NEK2; [18]): 54.1% | remaining activity at 1 µM (NEK2; [19]): 104% | remaining activity at 10 µM (NEK2; [20]): 51.6% | IC50 [2]: 4.39 µM | Selectivity Index (SI) MLR/B-cell [2]: 7.5 | IC50 at 48 h [3]: 3.01 µM | IC50 (human CD19+ B cells; [12]): 0.59 µM
